For five molecules, IC50 results are on record in patent publication US12358914B2, “Preparation method and use of pyrazole compound containing 1-(3,4-dimethoxyphenyl)-β-carboline unit” (NANTONG UNIVERSITY, priority 2020, dated 2025).

The test system of the assay is Human gastric cancer cell HGC-27. Nature of the assay: In-vitro anti-tumor activity test by MTT method. The format is cell-based. Conditions: HGC-27 cells, 24 hours incubation with compound, OD 570 nm. The procedure:
Anti-Tumor Activity Test of Compounds
The in-vitro anti-tumor activity of the compounds was tested by tetramethylazoazole colorimetric (MTT) method. Human gastric cancer cell HGC-27 was used as a test cell. 5-fluorouracil (5-FU) was selected as the positive control drug. Human gastric cancer cell HGC-27 in the exponential growth phase was made into a cell suspension with 4×10^3 cells/mL, inoculated in a 96-well plate, and cultured in a CO2 incubator for 36 hours. The test solution (10 μL) of the compound to be tested was added into the test wells, with parallel wells being set for each concentration. The same amount of DMSO was used as a blank control. The plate was incubated in a CO2 incubator for 24 hours, then the supernatant was discarded, and 10 μL of 5% MTT was added to each well. Then the plate was incubated for 4 hours, and the supernatant was sucked and discarded. Subsequently, 100 μL of DMSO was added to each well, and the plate was shaken in a shaker for 20 minutes. The OD value was measured with a microplate reader at a wavelength of 570 nm, and the cell inhibition rate was calculated. Cell inhibition rate=(OD value of negative control group−OD value of tested substance group)/OD value of negative control group×100%. The IC50 value of each compound was calculated by the probability unit weighted regression method.

The IC50 is the midpoint of a concentration-inhibition curve. `COc1ccc(Oc2c(/C=N/NC(=O)c3cc4c([nH]c5ccccc54)c(-c4ccc(OC)c(OC)c4)n3)c(C)nn2C)cc1` [Ib]: the half-inhibitory concentration (IC50) turned out to be 1.89 µM.

In the case of `COc1ccc(-c2nc(C(=O)N/N=C/c3c(C)nn(C)c3Oc3ccc(Cl)cc3)cc3c2[nH]c2ccccc23)cc1OC` [Ia], the IC50 is 10.1 µM.

Turning to `O=c1[nH]cc(F)c(=O)[nH]1` [Compound 5-FU, 5-fluorouracil, reference compound], the IC50 is 34.1 µM.

For `COc1ccc(-c2nc(C(=O)N/N=C/c3c(C)nn(C)c3Oc3ccc(F)cc3F)cc3c2[nH]c2ccccc23)cc1OC` [Id], the half-inhibitory concentration (IC50) stood at 1.27 µM.

Consider `COc1ccc(-c2nc(C(=O)N/N=C/c3c(C)nn(C)c3Oc3ccc(F)cc3)cc3c2[nH]c2ccccc23)cc1OC` [Ic], for which the IC50 stood at 7.03 µM.
